Source: patent US20240166635A1, “AMINOHETEROARYL KINASE INHIBITORS” (Anrui Biomedical Technology (Guangzhou) Co.,Ltd., priority 2020, published 2024)

Key:
Type in all cases: biochemical
[1] = biological target: CDK6/CyclinD1 (Homo sapiens (Human), UniProt Q00534); test: CDK6/CyclinD1 kinase inhibitory activity (Caliper mobility shift); conditions: read-out: CDK6/Cyclin D1 IC50
[2] = biological target: CDK9/CyclinT1 (Homo sapiens (Human), UniProt P50750); test: CDK9/CyclinT1 kinase inhibitory activity (Caliper mobility shift); conditions: read-out: CDK9/Cyclin T1 IC50
CDK9/CyclinT1, sequence (P50750 whole entry): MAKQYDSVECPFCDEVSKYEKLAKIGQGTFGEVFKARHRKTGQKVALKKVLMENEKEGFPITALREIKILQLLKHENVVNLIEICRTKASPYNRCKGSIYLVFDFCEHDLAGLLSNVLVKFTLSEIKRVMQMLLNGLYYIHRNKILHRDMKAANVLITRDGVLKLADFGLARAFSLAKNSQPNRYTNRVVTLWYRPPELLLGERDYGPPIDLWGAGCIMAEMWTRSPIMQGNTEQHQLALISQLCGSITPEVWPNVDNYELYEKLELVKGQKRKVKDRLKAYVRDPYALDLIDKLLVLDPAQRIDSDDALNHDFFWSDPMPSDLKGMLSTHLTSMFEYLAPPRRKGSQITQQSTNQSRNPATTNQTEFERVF
CDK9/CyclinT1, sequence (O60563 whole entry partner): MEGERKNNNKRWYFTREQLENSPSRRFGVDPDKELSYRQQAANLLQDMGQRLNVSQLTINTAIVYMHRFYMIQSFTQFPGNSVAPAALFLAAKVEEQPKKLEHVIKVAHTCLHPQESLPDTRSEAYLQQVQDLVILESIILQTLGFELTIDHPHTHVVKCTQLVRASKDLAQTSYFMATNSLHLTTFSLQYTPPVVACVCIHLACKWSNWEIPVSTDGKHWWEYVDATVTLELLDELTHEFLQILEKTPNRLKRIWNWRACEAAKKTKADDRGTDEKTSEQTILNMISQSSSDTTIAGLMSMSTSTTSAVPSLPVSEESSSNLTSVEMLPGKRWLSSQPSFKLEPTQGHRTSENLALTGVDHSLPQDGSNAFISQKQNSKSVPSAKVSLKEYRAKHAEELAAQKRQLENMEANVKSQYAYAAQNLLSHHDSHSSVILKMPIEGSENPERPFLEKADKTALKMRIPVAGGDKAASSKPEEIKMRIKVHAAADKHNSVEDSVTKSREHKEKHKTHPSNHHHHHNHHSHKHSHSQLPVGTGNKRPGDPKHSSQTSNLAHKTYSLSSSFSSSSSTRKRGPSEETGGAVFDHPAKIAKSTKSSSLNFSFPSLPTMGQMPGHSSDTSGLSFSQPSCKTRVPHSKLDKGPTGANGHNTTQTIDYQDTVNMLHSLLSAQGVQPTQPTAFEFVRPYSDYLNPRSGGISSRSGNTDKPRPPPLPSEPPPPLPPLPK

[3] = biological target: CDK7/CyclinH/MAT1 (Homo sapiens (Human), UniProt P50613); test: CDK7/CyclinH/MAT1 kinase inhibitory activity (Caliper mobility shift)
CDK7/CyclinH/MAT1, sequence (P50613 whole entry): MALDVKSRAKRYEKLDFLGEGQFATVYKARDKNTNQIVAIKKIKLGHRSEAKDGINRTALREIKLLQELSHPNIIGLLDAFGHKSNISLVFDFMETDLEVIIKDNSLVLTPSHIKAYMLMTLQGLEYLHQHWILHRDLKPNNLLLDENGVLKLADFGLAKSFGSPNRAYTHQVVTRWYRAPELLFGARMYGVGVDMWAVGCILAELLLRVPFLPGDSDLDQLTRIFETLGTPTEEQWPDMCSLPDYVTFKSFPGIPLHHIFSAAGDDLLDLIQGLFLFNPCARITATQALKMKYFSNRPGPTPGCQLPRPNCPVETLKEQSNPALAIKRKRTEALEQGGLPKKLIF
CDK7/CyclinH/MAT1, sequence (P51946 whole entry partner): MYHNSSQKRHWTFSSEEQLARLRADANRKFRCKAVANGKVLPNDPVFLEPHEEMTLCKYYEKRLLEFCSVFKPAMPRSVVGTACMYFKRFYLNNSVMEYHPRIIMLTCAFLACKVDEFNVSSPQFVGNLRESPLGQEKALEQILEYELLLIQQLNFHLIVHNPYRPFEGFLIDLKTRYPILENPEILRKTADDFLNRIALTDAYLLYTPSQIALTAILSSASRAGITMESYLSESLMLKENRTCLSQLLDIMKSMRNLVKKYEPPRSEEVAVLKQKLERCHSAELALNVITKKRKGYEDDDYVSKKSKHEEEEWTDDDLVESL
CDK7/CyclinH/MAT1, sequence (P51948 whole entry partner): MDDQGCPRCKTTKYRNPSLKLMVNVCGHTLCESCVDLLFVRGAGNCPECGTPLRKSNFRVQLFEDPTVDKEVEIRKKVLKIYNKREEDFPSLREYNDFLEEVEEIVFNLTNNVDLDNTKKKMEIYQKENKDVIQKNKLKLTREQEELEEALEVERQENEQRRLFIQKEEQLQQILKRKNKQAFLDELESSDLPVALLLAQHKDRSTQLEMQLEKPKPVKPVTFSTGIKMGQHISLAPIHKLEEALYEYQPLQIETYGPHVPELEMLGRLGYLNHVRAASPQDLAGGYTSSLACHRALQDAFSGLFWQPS

[4] = biological target: CDK2/CyclinE1 (Homo sapiens (Human), UniProt P24941); test: CDK2/CyclinE1 kinase inhibitory activity (Caliper mobility shift); conditions: read-out: CDK2/Cyclin El IC50
[5] = biological target: CDK1/CyclinB (Homo sapiens (Human), UniProt P06493); test: CDK1/CyclinB kinase inhibitory activity (Caliper mobility shift); conditions: read-out: CDK1/Cyclin B1 IC50
CDK1/CyclinB, sequence (P06493 whole entry): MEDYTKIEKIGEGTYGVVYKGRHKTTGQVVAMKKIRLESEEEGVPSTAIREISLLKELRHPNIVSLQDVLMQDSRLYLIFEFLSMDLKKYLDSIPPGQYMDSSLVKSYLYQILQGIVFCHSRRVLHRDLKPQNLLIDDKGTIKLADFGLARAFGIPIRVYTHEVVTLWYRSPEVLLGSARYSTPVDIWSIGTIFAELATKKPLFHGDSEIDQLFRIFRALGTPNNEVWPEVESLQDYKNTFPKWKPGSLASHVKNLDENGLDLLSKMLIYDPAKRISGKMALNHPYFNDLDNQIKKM
CDK1/CyclinB, sequence (P14635 whole entry partner): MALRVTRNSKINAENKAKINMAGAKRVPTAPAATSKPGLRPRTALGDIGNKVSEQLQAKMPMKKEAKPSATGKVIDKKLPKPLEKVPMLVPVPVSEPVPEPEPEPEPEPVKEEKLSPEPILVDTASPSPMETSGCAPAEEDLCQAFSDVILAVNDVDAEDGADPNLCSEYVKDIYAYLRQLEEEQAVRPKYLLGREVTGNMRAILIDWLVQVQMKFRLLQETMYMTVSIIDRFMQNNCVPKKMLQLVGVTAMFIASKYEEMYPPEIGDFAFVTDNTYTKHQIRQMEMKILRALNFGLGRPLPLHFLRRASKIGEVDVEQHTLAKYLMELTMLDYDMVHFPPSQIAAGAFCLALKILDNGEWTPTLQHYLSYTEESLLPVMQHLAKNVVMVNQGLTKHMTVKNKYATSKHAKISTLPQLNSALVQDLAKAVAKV

[6] = biological target: CDK4/Cyclin D1 (Homo sapiens (Human), UniProt P11802); test: CDK4/CyclinD1 kinase inhibitory activity (Caliper mobility shift)
CDK4/Cyclin D1, sequence (P11802 whole entry): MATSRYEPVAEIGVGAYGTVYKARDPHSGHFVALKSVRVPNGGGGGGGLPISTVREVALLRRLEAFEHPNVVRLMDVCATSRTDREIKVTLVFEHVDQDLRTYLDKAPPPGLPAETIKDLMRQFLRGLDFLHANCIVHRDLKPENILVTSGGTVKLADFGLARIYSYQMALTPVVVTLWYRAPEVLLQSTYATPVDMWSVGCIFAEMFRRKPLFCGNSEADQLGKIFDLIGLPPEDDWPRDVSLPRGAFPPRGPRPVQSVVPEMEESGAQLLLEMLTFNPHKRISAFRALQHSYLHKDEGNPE
CDK4/Cyclin D1, sequence (P24385 whole entry partner): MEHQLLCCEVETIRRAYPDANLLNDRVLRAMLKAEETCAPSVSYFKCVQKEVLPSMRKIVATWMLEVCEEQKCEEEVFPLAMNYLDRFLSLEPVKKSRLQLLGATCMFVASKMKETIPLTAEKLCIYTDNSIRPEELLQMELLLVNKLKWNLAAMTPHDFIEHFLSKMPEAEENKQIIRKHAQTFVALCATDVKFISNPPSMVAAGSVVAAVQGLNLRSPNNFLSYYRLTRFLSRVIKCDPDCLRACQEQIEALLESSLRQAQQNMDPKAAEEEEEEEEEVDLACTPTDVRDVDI

CDK6/CyclinD1, sequence (Q00534 whole entry): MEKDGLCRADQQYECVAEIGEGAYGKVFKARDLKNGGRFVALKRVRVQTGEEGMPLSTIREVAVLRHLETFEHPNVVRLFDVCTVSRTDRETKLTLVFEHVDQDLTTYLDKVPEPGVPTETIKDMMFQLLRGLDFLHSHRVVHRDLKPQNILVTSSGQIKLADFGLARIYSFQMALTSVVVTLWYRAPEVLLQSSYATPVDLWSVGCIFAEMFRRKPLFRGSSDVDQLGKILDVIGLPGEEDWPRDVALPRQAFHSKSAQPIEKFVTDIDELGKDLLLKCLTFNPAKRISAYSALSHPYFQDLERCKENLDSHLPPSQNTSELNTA
CDK6/CyclinD1, sequence (P24385 whole entry partner): as the sequence (P24385 whole entry partner) above

SMILES | IC50 [1] [nM] | IC50 [2] [nM] | IC50 [3] [nM] | IC50 [4] [nM] | IC50 [5] [nM] | IC50 [6] [nM]
[2H]C([2H])([2H])NS(=O)(=O)c1ccc(Nc2ncc(C(=C)F)c(O[C@@H]3CCC[C@@H]3O)n2)cc1 (single isomer, unassigned) [Example 135a, cis-4-((5-(1-fluorovinyl)-4-((2-hydroxycyclopentyl)oxy)pyrimidin-2-yl)amino)-N-(methyl-d3)benzenesulfonamide] | 100 to 1000 | 100 to 1000 | 100 to 1000 | < 10 | 10 to 100 | 100 to 1000
CC1(NS(=O)(=O)c2ccc(Nc3ncc(Br)c(O[C@@H]4CCC[C@@H]4O)n3)cc2)COC1 (single isomer, unassigned) [Example 131a, cis-4-((5-bromo-4-((2-hydroxycyclopentyl)oxy)pyrimidin-2-yl)amino)-N-(3-methyloxetan-3-yl)benzenesulfonamide] | 100 to 1000 | 100 to 1000 | 100 to 1000 | < 10 | 10 to 100 | 100 to 1000
CNS(=O)(=O)c1ccc(Nc2ncc(C(F)(F)F)c(OC3CCOCC3O)n2)cc1 (single isomer, unassigned) [Example 116a] | 100 to 1000 | 100 to 1000 | 100 to 1000 | < 10 | 10 to 100 | 100 to 1000
[2H]C([2H])([2H])NS(=O)(=O)c1ccc(Nc2ncc(C(F)(F)F)c(OC3CCCC3)n2)cc1 [Example 108] | 100 to 1000 | ≥ 1000 | ≥ 1000 | < 10 | 10 to 100 | 10 to 100
CS(=O)(=O)N1CCC(Nc2ncc(C(F)(F)F)c(OC3CCCCC3)n2)CC1 [Example 127] | 100 to 1000 | 10 to 100 | 100 to 1000 | < 10 | 10 to 100 | < 10
N#Cc1cnc(Nc2ccc(S(N)(=O)=O)cc2)nc1N1CCC[C@H](F)C1 [Example 81] | 100 to 1000 | 100 to 1000 | ≥ 1000 | 10 to 100 | 100 to 1000 | 10 to 100
CC(C)NS(=O)(=O)c1ccc(Nc2ncc(C3CC3)c(O[C@@H]3CCC[C@@H]3O)n2)cc1 (single isomer, unassigned) [Example 134a, cis-4-((5-cyclopropyl-4-((2-hydroxycyclopentyl)oxy)pyrimidin-2-yl)amino)-N-isopropylbenzenesulfonamide] | 100 to 1000 | 100 to 1000 | 100 to 1000 | < 10 | 10 to 100 | 100 to 1000
Cc1cnc(Nc2ccc(S(=O)(=O)NC(C)C)cc2)nc1OC1CCCC1O (single isomer, unassigned) [Example 147a] | 100 to 1000 | 100 to 1000 | 100 to 1000 | < 10 | 10 to 100 | ≥ 1000
N#Cc1cnc(Nc2ccc(S(N)(=O)=O)cc2)nc1OC1CCCC1O (single isomer, unassigned) [Example 20b] | 100 to 1000 | 100 to 1000 | ≥ 1000 | 10 to 100 | 100 to 1000 | 100 to 1000
CNS(=O)(=O)N1CCC(Nc2ncc(C(F)(F)F)c(OC3CCCCCC3)n2)CC1 [Example 129] | 100 to 1000 | 10 to 100 | ≥ 1000 | < 10 | 10 to 100 | < 10
CNS(=O)(=O)c1ccc(Nc2ncc(C#N)c(OC3CCC[C@H]3O)n2)cc1 (mixture of isomers) [Example 26] | 100 to 1000 | ≥ 1000 | ≥ 1000 | < 10 | 100 to 1000 | 100 to 1000
[2H]C([2H])([2H])NS(=O)(=O)c1ccc(Nc2ncc(C(F)(F)F)c(O[C@H]3CCOC[C@H]3O)n2)c(F)c1 (single isomer, unassigned) [Example 101a, cis-3-fluoro-4-((4-((3-hydroxytetrahydro-2H-pyran-4-yl)oxy)-5-(trifluoromethyl)pyrimidin-2-yl)amino)-N-(methyl-d3)benzenesulfonamide] | ≥ 1000 | ≥ 1000 | ≥ 1000 | < 10 | 100 to 1000 | ≥ 1000

More lines, now with the values ahead:

IC50 [1] [nM] | IC50 [2] [nM] | IC50 [3] [nM] | IC50 [4] [nM] | IC50 [5] [nM] | IC50 [6] [nM] | SMILES
< 10 | 100 to 1000 | 10 to 100 | < 10 | 10 to 100 | 10 to 100 | C[C@]1(O)CC(F)(F)C[C@H]1Oc1nc(NC2CCN(S(C)(=O)=O)CC2)ncc1C#N (relative stereo) [Example 4a, cis-4-((4,4-difluoro-2-hydroxy-2-methylcyclopentyl)oxy)-2-((1-(methylsulfonyl)piperidin-4-yl)amino)pyrimidine-5-carbonitrile]
100 to 1000 | 100 to 1000 | ≥ 1000 | < 10 | 10 to 100 | 100 to 1000 | CC1CCCC(O)C1Oc1nc(Nc2ccc(S(N)(=O)=O)cc2)ncc1C(F)(F)F (single isomer, unassigned) [Example 112a]
10 to 100 | 100 to 1000 | 100 to 1000 | < 10 | 10 to 100 | 100 to 1000 | CNS(=O)(=O)c1ccc(Nc2ncc(Cl)c(OC3CCCC3O)n2)cc1 (single isomer, unassigned) [Example 137a]
100 to 1000 | ≥ 1000 | ≥ 1000 | 10 to 100 | 100 to 1000 | 100 to 1000 | CN1CCC(NS(=O)(=O)c2ccc(Nc3ncc(Cl)c(OC4CCCC4O)n3)cc2)CC1 (single isomer, unassigned) [Example 139b]
10 to 100 | 10 to 100 | 10 to 100 | < 10 | < 10 | 10 to 100 | CC(C)NS(=O)(=O)c1ccc(Nc2ncc(C#N)c(OC3CCCC3(C)O)n2)cc1 (single isomer, unassigned) [Example 35a]
< 10 | 100 to 1000 | 100 to 1000 | < 10 | 10 to 100 | < 10 | CC1(O)CCCC1Oc1nc(NC2CCN(S(=O)(=O)CC3CCOC3)CC2)ncc1C#N (single isomer, unassigned) [Example 40a]
10 to 100 | 10 to 100 | 10 to 100 | < 10 | < 10 | 10 to 100 | CC1(O)CCCC1Oc1nc(Nc2ccc(S(N)(=O)=O)cc2)ncc1C1CC1 (single isomer, unassigned) [Example 154a]
10 to 100 | 100 to 1000 | 10 to 100 | < 10 | < 10 | 10 to 100 | CNS(=O)(=O)c1ccc(Nc2ncc(C#N)c(OC3CCCC3(C)O)n2)cc1 (single isomer, unassigned) [Example 34a]
< 10 | 100 to 1000 | 100 to 1000 | < 10 | 10 to 100 | 10 to 100 | CC(C)CS(=O)(=O)N1CCC(Nc2ncc(C#N)c(OC3CCCC3(C)O)n2)CC1 (single isomer, unassigned) [Example 39a]
10 to 100 | 10 to 100 | 100 to 1000 | < 10 | 10 to 100 | 100 to 1000 | NS(=O)(=O)c1ccc(Nc2ncc(C(F)(F)F)c(O[C@@H]3CCC[C@@H]3O)n2)cc1 (single isomer, unassigned) [Example 99a, cis-4-((4-((2-hydroxycyclopentyl)oxy)-5-(trifluoromethyl)pyrimidin-2-yl)amino)benzenesulfonamide]
10 to 100 | 10 to 100 | 10 to 100 | < 10 | 10 to 100 | 100 to 1000 | [2H]C([2H])([2H])NS(=O)(=O)c1ccc(Nc2ncc(CC)c(OC3COCCC3(C)O)n2)cc1 (single isomer, unassigned) [Example 153a]
10 to 100 | 100 to 1000 | 100 to 1000 | < 10 | 10 to 100 | 100 to 1000 | [2H]C([2H])([2H])NS(=O)(=O)c1ccc(Nc2ncc(Br)c(OC3CCCC3O)n2)cc1 (single isomer, unassigned) [Example 143a]
< 10 | 100 to 1000 | 100 to 1000 | < 10 | < 10 | < 10 | Cn1ccc(S(=O)(=O)N2CCC(Nc3ncc(C#N)c(OCC4(C)CCCC4)n3)CC2)n1 [Example 63]
10 to 100 | 10 to 100 | < 10 | < 10 | 10 to 100 | 10 to 100 | CC1(O)COCCC1Oc1nc(NC2CCN(S(C)(=O)=O)CC2)ncc1C(F)(F)F (single isomer, unassigned) [Example 124a]
10 to 100 | 10 to 100 | 100 to 1000 | < 10 | 10 to 100 | 100 to 1000 | C=Cc1cnc(Nc2ccc(S(N)(=O)=O)cc2)nc1OC1CCCC1O (single isomer, unassigned) [Example 155a]
10 to 100 | 100 to 1000 | 100 to 1000 | < 10 | 10 to 100 | < 10 | CC1(COc2nc(NC3CCN(S(C)(=O)=O)CC3)ncc2C#N)CCC1 [Example 53]
10 to 100 | 100 to 1000 | 100 to 1000 | < 10 | 10 to 100 | < 10 | CCS(=O)(=O)N1CCC(Nc2ncc(C#N)c(OC3CCCC3(C)O)n2)CC1 (single isomer, unassigned) [Example 36b]
10 to 100 | 100 to 1000 | 100 to 1000 | < 10 | 10 to 100 | < 10 | CC1(O)CCCC1Oc1nc(NC2CCN(S(=O)(=O)CC(F)(F)F)CC2)ncc1C#N (single isomer, unassigned) [Example 43a]
